Laboratory results: article PMC5908784, “Extracellular loops 2 and 3 of the calcitonin receptor selectively modify agonist binding and efficacy” (Biochemical Pharmacology, 2018)
Numbering of substitutions follows the chain as printed. Where a SMILES comes first, the peptide text is derived from it. Bridges are numbered along the chain shown (N, C = ends).

Assays:
Experiment in all cases: Heterologous whole cell competition binding
Settings in all cases: heterologous competition of 125I-sCT(8-32), whole cells, mean ± S.E.M., SEM
hCTR M376A = target: T1, hCTR M376A (Homo sapiens, UniProt P30988, M376A)
T1 construct: c-Myc (N); expressed in transfected cells
T1 sequence (P30988 25-474 M376A): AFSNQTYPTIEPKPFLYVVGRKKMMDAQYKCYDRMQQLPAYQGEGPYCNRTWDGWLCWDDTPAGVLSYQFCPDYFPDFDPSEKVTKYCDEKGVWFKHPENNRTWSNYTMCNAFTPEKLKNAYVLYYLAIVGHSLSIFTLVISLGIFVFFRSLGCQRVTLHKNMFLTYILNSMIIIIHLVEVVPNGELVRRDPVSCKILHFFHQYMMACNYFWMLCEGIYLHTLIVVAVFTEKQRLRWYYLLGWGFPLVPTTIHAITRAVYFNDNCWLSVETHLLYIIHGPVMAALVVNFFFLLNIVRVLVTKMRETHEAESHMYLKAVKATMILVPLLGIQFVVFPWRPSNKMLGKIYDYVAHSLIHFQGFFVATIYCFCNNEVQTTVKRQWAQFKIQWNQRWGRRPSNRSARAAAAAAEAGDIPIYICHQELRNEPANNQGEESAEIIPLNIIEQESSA
In short: (§1)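 Reported pKi values come from whole-cell displacement of a radiolabelled tracer, incubated overnight and quantified by gamma counting after washing out free ligand, with correction for tracer occupancy (Cheng-Prusoff).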

hCTR M367A = target: T2, hCTR M367A (Homo sapiens, UniProt P30988, M367A)
T2 construct: c-Myc (N); expressed in transfected cells
T2 sequence (P30988 25-474 M367A): T1 sequence (P30988 25-474 M376A) with M343A, A352M
In short: as §1

hCTR S292A = target: T3, hCTR S292A (Homo sapiens, UniProt P30988, S292A)
T3 construct: expressed in transfected cells
T3 sequence (P30988 25-474 S292A): T1 sequence (P30988 25-474 M376A) with S268A, A352M
In short: as §1

hCTR L291A = target: T4, hCTR L291A (Homo sapiens, UniProt P30988, L291A)
T4 construct: expressed in transfected cells
T4 sequence (P30988 25-474 L291A): T1 sequence (P30988 25-474 M376A) with L267A, A352M
In short: as §1

hCTR Y372A = target: T5, hCTR Y372A (Homo sapiens, UniProt P30988, Y372A)
T5 construct: c-Myc (N); expressed in transfected cells
T5 sequence (P30988 25-474 Y372A): T1 sequence (P30988 25-474 M376A) with Y348A, A352M
In short: as §1

In the case of `CSCC[C@H](NC(=O)CNC(=O)[C@H](CO)NC(=O)[C@H](Cc1ccccc1)NC(=O)[C@H](CCCNC(=N)N)NC(=O)[C@H](Cc1c[nH]cn1)NC(=O)[C@H](Cc1ccccc1)NC(=O)[C@H](CC(N)=O)NC(=O)[C@H](CC(N)=O)NC(=O)[C@H](CC(C)C)NC(=O)[C@H](CC(N)=O)NC(=O)[C@H](CCCNC(=N)N)NC(=O)[C@H](Cc1c[nH]c2ccccc12)NC(=O)[C@H](Cc1ccc(O)cc1)NC(=O)[C@H](C)NC(=O)[C@H](CO)NC(=O)[C@H](CC(C)C)NC(=O)[C@@H](NC(=O)[C@@H]1CSSC[C@H](N)C(=O)N[C@@H](CO)C(=O)N[C@@H](CC(N)=O)C(=O)N[C@@H](CC(C)C)C(=O)N[C@@H](CO)C(=O)N[C@@H]([C@@H](C)O)C(=O)N1)C(C)C)C(=O)NCC(=O)N[C@@H](Cc1ccccc1)C(=O)NCC(=O)N1CCC[C@H]1C(=O)N[C@@H](CCC(=O)O)C(=O)N[C@H](C(=O)N1CCC[C@H]1C(N)=O)[C@@H](C)O` [pCT] (H-CSNLSTCVLSAYWRNLNNFHRFSGMGFGPETP-NH2; disulfide 1-7), the Ki (hCTR M376A) is reported as 7.76 nM, the Ki (hCTR M367A) is reported as 21.4 nM and the Ki (hCTR S292A) is reported as 2.88 nM. For the same molecule, the Ki (hCTR L291A) was 67.6 nM and the Ki (hCTR Y372A) was 28.2 nM.
